Measured values taken from US5880106A, “Oral dosing formulations of dideoxy purine nucleosides” (Bristol-Myers Squibb Company, priority 1997, dated 1999).
Like-named read-outs stand apart in the source and are kept apart here.

Experiments:
[1] = Solution stability of didanosine as a function of pH (stomach degradation model, Acid Neutralization Rate Test); format: physicochemical; conditions: water with hcl; pH 5, 37° C., 1/2 hour
[2] = 37° C., cited from earlier work

OC[C@@H]1CC[C@H](n2cnc3c(O)ncnc32)O1 [Didanosine, 2',3'-Dideoxyinosine]
degraded at 0.5 h [1]: < 4% | t90 ([2]; pH 7.4): 16 days | t90 ([2]; pH 9.5): 509 days | t90 ([2]; pH <3): < 0.0014 days
